Common to all, as to test: Apparent affinity (Kd) by titration of PL peptide in the G assay
What all share (format): binding

In assay [1] the target is T1, PDZ-domain polypeptide (GST/PDZ fusion protein) (Homo sapiens, UniProt O00560).
T1 construct: made in house; host or cells: E. coli (DH5alpha, BL21 or JM109)
The following applies: PDZ hSyntenin, PDZ Domain 1; titration of the PL peptide; read-out: Peptide Optimal Conc (Kd, dissociation constant). Summed up:
(§1)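 A fixed concentration of GST/PDZ fusion protein, 5 ug/ml by default, was mixed in solution with increasing labeled PL peptide (e.g. 0.1 uM-1 mM). Reaction times ranged from 10 minutes to 2 days at 4-37° C. Complexes were separated from free peptide and detected via the label as in the G assay, apparent affinity coming from the saturating concentration.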

Assay [2] concerns the target T2, PDZ-domain polypeptide (GST/PDZ fusion protein) (Homo sapiens, UniProt O15018).
T2 construct: made in house; host or cells: E. coli (DH5alpha, BL21 or JM109)
The following applies: Peptide Optimal Conc (Kd by titration of the PL peptide), PDZ AIPC, PDZ Domain 1. Summed up: as §1

Assay [3] concerns the target T3, PDZ-domain polypeptide (GST/PDZ fusion protein) (Homo sapiens, UniProt Q07157).
T3 construct: made in house; host or cells: E. coli (DH5alpha, BL21 or JM109)
The following applies: Peptide Optimal Conc (Kd by titration of the PL peptide), PDZ ZO-1, PDZ Domain 2. Summed up:
as §1

Assay [4] concerns the target T4, PDZ-domain polypeptide (GST/PDZ fusion protein) (Homo sapiens, UniProt Q8NI35).
T4 construct: made in house; host or cells: E. coli (DH5alpha, BL21 or JM109)
The following applies: Peptide Optimal Conc (Kd by titration of the PL peptide), PDZ INADL, PDZ Domain 3. In outline:
as §1

Assay [5] has as its target T5, PDZ-domain polypeptide (GST/PDZ fusion protein) (Homo sapiens, UniProt Q9Y3R0).
T5 construct: made in house; host or cells: E. coli (DH5alpha, BL21 or JM109)
The following applies: Peptide Optimal Conc (Kd by titration of the PL peptide), PDZ GRIP1, PDZ Domain 6. In outline: as §1

Assay [6] deals with T6, PDZ-domain polypeptide (GST/PDZ fusion protein) (Homo sapiens, UniProt Q9C0E4).
T6 construct: made in house; host or cells: E. coli (DH5alpha, BL21 or JM109)
The following applies: Peptide Optimal Conc (Kd by titration of the PL peptide). In outline:
as §1

The target in assay [7] is T7, PDZ-domain polypeptide (GST/PDZ fusion protein) (Homo sapiens, UniProt Q969H4).
T7 construct: made in house; host or cells: E. coli (DH5alpha, BL21 or JM109)
The following applies: PDZ Connector Enhancer, PDZ Domain 1; Protein Optimal Conc 5. In outline:
as §1

Assay [8] deals with T8, PDZ-domain polypeptide (GST/PDZ fusion protein) (Homo sapiens, UniProt P57105).
T8 construct: made in house; host or cells: E. coli (DH5alpha, BL21 or JM109)
Conditions: PDZ Outer Membrane, PDZ Domain 1; Protein Optimal Conc 5. Summed up:
as §1

Assay [9] deals with T9, PDZ-domain polypeptide (GST/PDZ fusion protein) (Homo sapiens, UniProt O14907).
T9 construct: made in house; host or cells: E. coli (DH5alpha, BL21 or JM109)
Conditions: PDZ TIP1, PDZ Domain 1; titration of the PL peptide; read-out: Peptide Optimal Conc (Kd, dissociation constant). In outline:
as §1

The target in assay [10] is T10, PDZ-domain polypeptide (GST/PDZ fusion protein) (Homo sapiens, UniProt Q96HC4).
T10 construct: made in house; host or cells: E. coli (DH5alpha, BL21 or JM109)
Conditions: PDZ LIM Protein, PDZ Domain 1; titration of the PL peptide; read-out: Peptide Optimal Conc (Kd, dissociation constant). Summed up: as §1

Assay [11] addresses T11, PDZ-domain polypeptide (GST/PDZ fusion protein) (Homo sapiens, UniProt Q9P202).
T11 construct: made in house; host or cells: E. coli (DH5alpha, BL21 or JM109)
The following applies: PDZ KIAA1526, PDZ Domain 1; read-out: Peptide Optimal Conc (Kd by titration of the PL peptide). Summed up:
as §1

In assay [12] the target is T12, PDZ-domain polypeptide (GST/PDZ fusion protein) (Homo sapiens, UniProt Q14160).
T12 construct: made in house; host or cells: E. coli (DH5alpha, BL21 or JM109)
The following applies: PDZ KIAA0147, PDZ Domain 3; read-out: Peptide Optimal Conc (Kd by titration of the PL peptide). In outline:
as §1

The target of assay [13] is T13, PDZ-domain polypeptide (GST/PDZ fusion protein) (Homo sapiens, UniProt Q96RT1).
T13 construct: made in house; host or cells: E. coli (DH5alpha, BL21 or JM109)
The following applies: PDZ Erbin, PDZ Domain 1; read-out: Peptide Optimal Conc (Kd by titration of the PL peptide). Summed up: as §1

Assay [14] concerns the target T14, PDZ-domain polypeptide (GST/PDZ fusion protein) (Homo sapiens, UniProt Q13796).
T14 construct: made in house; host or cells: E. coli (DH5alpha, BL21 or JM109)
The following applies: PDZ hAPXL, PDZ Domain 1; read-out: Peptide Optimal Conc (non-zero value: Kd by titration of the PL peptide). Summed up: as §1

The target in assay [15] is T15, PDZ-domain polypeptide (GST/PDZ fusion protein) (Homo sapiens, UniProt Q9UDY2).
T15 construct: made in house; host or cells: E. coli (DH5alpha, BL21 or JM109)
The following applies: Peptide Optimal Conc (Kd by titration of the PL peptide), PDZ ZO-2, PDZ Domain 1. Summed up: as §1

Among the data in patent publication US20050282743A1, “Molecular interactions in cells” (Arbor Vita Corporation, priority 2001, published 2005) are Kd values, retold here.

Peptide text beside a SMILES is read from it. * marks the point of attachment. Biotin = O=C1N[C@H]2[C@H](CS[C@H]2CCCCC(=O)*)N1

T6 sequence (Q9C0E4 whole entry, the tested form may be a part): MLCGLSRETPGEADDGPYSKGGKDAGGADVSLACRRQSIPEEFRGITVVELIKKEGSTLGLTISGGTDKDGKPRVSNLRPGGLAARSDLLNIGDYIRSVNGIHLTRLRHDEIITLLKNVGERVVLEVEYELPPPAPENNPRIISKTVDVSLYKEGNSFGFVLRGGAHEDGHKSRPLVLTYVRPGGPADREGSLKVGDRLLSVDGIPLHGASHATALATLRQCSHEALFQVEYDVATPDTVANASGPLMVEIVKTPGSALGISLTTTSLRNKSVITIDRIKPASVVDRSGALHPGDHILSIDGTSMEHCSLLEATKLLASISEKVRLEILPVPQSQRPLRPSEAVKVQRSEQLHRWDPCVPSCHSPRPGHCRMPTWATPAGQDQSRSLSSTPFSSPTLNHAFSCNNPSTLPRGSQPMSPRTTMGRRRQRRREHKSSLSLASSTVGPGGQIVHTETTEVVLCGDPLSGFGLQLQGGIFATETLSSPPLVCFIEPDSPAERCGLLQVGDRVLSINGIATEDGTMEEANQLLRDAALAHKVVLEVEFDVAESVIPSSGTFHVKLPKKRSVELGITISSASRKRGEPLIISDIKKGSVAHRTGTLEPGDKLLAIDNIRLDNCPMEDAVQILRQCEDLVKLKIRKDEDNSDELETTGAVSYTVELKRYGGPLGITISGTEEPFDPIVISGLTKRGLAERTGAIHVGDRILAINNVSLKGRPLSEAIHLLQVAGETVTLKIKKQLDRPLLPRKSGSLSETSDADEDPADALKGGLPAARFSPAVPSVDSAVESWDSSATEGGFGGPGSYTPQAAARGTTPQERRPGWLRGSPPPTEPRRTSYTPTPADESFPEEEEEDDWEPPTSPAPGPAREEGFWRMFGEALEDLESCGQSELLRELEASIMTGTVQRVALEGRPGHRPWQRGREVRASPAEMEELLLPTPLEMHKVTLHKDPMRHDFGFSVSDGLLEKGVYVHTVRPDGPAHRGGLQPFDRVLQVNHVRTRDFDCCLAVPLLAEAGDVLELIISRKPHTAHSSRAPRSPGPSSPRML
T12 sequence (Q14160 whole entry, the tested form may be a part): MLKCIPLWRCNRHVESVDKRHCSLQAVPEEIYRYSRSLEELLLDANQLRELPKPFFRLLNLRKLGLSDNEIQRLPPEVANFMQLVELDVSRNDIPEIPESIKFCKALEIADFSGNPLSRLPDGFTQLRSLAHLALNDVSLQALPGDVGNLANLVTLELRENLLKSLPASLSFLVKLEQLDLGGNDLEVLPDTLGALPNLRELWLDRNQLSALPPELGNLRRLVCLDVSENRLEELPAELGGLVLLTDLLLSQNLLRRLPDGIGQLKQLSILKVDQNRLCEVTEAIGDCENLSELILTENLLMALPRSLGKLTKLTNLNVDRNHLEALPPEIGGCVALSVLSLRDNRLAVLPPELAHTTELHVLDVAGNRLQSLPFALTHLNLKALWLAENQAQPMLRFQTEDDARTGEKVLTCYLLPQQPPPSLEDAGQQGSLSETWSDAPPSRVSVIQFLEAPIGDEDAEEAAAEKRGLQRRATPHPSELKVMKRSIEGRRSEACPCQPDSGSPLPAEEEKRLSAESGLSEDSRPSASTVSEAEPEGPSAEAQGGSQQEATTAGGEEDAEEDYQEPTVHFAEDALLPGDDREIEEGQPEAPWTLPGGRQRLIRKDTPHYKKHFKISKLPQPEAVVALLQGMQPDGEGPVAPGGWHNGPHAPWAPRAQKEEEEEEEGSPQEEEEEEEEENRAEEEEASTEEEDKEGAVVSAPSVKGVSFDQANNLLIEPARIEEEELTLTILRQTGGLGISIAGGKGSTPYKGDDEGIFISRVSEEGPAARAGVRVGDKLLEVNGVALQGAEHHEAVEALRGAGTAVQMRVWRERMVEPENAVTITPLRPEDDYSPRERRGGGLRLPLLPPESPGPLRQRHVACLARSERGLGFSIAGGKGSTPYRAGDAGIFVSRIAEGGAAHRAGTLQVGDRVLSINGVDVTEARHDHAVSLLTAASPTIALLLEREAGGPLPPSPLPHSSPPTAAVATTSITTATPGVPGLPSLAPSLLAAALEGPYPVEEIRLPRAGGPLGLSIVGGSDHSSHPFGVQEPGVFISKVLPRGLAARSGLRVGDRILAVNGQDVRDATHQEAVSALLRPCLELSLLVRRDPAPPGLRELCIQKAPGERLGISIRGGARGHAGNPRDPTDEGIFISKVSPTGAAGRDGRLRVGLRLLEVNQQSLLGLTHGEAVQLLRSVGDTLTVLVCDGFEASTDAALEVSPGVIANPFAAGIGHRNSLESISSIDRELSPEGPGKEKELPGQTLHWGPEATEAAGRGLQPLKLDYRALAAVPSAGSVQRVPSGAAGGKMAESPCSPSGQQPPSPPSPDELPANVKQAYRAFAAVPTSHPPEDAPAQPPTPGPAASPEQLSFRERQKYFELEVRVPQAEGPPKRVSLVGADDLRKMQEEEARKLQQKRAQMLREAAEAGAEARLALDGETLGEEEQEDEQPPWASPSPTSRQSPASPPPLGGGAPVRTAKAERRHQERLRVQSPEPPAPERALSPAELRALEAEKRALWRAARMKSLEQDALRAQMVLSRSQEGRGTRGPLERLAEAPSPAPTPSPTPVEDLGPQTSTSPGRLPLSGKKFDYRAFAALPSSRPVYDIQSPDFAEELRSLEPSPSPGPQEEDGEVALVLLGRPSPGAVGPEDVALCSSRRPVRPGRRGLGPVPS
T10 sequence (Q96HC4 whole entry, the tested form may be a part): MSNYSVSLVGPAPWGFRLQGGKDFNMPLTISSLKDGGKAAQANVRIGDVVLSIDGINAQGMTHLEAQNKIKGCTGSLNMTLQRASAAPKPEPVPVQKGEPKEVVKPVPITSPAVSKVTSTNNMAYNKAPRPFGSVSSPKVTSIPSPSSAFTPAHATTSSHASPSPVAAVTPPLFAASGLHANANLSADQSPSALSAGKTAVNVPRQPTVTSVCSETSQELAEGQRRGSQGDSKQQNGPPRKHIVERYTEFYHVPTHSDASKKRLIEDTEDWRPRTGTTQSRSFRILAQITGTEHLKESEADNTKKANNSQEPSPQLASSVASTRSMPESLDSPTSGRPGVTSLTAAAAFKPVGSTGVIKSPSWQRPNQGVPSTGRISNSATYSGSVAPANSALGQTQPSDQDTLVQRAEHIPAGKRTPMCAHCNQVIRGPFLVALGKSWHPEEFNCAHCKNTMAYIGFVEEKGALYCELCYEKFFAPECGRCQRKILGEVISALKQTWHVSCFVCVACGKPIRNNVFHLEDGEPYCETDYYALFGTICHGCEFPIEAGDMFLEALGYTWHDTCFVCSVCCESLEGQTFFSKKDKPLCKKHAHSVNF
T3 sequence (Q07157 whole entry, the tested form may be a part): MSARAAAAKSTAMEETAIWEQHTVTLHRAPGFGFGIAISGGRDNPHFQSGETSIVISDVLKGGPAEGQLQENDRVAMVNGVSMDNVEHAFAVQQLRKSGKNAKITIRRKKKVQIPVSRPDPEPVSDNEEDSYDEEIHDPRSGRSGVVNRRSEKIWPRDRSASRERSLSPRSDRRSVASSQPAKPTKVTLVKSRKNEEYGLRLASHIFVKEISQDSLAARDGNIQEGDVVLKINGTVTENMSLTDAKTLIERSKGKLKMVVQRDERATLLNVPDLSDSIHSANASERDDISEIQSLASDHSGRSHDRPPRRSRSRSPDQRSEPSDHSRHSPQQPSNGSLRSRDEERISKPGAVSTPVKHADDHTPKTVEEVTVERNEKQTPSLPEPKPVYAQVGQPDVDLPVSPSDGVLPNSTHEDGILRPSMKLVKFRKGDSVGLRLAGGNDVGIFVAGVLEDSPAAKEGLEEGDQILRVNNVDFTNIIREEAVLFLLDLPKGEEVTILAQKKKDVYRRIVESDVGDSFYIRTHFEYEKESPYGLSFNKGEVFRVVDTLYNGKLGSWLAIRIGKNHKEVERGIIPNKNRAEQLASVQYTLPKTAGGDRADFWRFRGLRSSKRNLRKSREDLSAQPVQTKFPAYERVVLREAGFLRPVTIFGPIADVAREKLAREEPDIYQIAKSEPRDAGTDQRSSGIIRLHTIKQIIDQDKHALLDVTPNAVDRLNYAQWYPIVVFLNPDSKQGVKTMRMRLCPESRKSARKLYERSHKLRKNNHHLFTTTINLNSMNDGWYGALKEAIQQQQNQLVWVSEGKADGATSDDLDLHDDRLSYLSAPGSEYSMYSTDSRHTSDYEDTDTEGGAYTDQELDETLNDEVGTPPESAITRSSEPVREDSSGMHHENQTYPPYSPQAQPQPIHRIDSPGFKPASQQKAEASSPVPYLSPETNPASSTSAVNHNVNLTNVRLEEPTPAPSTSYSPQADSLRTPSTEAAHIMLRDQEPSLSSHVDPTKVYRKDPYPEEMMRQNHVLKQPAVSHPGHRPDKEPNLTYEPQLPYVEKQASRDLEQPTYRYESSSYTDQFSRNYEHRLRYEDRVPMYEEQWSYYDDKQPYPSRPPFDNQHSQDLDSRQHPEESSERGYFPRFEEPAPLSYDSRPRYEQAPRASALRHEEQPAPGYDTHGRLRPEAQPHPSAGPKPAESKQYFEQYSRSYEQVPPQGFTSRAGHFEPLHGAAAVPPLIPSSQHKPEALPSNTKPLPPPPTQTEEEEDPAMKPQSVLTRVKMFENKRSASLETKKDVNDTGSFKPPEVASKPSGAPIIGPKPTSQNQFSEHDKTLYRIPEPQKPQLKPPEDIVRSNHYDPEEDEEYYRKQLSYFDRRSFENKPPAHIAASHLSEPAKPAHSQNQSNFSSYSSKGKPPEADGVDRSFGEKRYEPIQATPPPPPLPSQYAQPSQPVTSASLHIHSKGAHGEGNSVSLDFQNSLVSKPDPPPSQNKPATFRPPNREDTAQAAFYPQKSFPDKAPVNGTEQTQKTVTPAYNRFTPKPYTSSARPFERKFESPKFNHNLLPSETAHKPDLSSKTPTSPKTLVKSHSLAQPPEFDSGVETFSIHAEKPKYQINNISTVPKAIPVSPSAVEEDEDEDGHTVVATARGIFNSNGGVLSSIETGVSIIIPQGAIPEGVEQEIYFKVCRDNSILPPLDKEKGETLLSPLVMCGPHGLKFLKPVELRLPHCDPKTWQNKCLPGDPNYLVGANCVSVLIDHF

As for `CC[C@H](C)[C@H](NC(=O)[C@H](Cc1ccc(O)cc1)NC(=O)[C@@H](NC(=O)[C@@H]1CCCN1C(=O)[C@H](CCC(N)=O)NC(=O)[C@H](CCC(=O)O)NC(=O)[C@H](CCC(N)=O)NC(=O)[C@H](C)NC(=O)[C@@H](NC(=O)[C@H](CC(C)C)NC(=O)[C@H](CC(C)C)NC(=O)[C@H](CCCNC(=N)N)NC(=O)[C@H](Cc1ccc(O)cc1)NC(=O)[C@H](CCSC)NC(=O)[C@H](C)NC(=O)[C@H](C)NC(=O)[C@@H]1CCCN1C(=O)[C@H](CCSC)NC(=O)[C@@H](NC(=O)[C@H](CCCCN)NC(=O)CCCC[C@@H]1SC[C@@H]2NC(=O)N[C@@H]21)[C@@H](C)O)[C@@H](C)O)C(C)C)C(=O)O` [MINT-1] (Biotin-KTMPAAMYRLLTAQEQPVYI-OH; C-terminus assumed), the Kd in assay [1] came out at 800 nM.
For the molecule `CC[C@H](C)[C@H](NC(=O)[C@H](C)NC(=O)[C@H](CC(C)C)NC(=O)[C@H](Cc1c[nH]c2ccccc12)NC(=O)[C@H](Cc1c[nH]cn1)NC(=O)[C@H](CCC(N)=O)NC(=O)[C@H](CC(C)C)NC(=O)[C@H](CCC(N)=O)NC(=O)[C@H](Cc1ccccc1)NC(=O)[C@H](CCC(N)=O)NC(=O)[C@H](CCCNC(=N)N)NC(=O)[C@@H](NC(=O)[C@H](CC(=O)O)NC(=O)[C@H](CCCNC(=N)N)NC(=O)[C@H](CCC(N)=O)NC(=O)[C@H](C)NC(=O)[C@@H](NC(=O)[C@H](CC(C)C)NC(=O)[C@H](Cc1c[nH]cn1)NC(=O)[C@H](Cc1c[nH]cn1)NC(=O)CCCC[C@@H]1SC[C@@H]2NC(=O)N[C@@H]21)C(C)C)[C@@H](C)CC)C(=O)O` [noradrenaline transporter] (Biotin-HHLVAQRDIRQFQLQHWLAI-OH; C-terminus assumed), the Kd in assay [2] turned out to be 600 nM; in assay [3], 400 nM; in assay [4], 600 nM; in assay [5], 500 nM; in assay [6] (PDZ KIAA1719, PDZ Domain 5) it was 1000 nM; in assay [6] (PDZ KIAA1719, PDZ Domain 6), 800 nM.
With `CC[C@H](C)[C@H](NC(=O)[C@H](CCCCN)NC(=O)[C@@H](NC(=O)[C@H](CO)NC(=O)[C@@H]1CCCN1C(=O)[C@H](Cc1ccccc1)NC(=O)[C@@H](NC(=O)[C@@H](NC(=O)[C@H](CCCNC(=N)N)NC(=O)[C@H](CCC(=O)O)NC(=O)[C@H](CC(C)C)NC(=O)[C@H](CC(C)C)NC(=O)[C@H](CC(C)C)NC(=O)[C@@H](NC(=O)CNC(=O)[C@@H](NC(=O)CCCC[C@@H]1SC[C@@H]2NC(=O)N[C@@H]21)C(C)C)[C@@H](C)O)C(C)C)[C@@H](C)CC)C(C)C)C(=O)N[C@@H](C)C(=O)N[C@H](C(=O)N[C@@H](CC(C)C)C(=O)N[C@H](C(=O)O)C(C)C)[C@@H](C)O` [Adenovirus E4 Type9], the Kd in [7] and in [8] was 100 nM throughout.
Consider `CC(C)C[C@H](NC(=O)[C@H](CC(=O)O)NC(=O)[C@H](CO)NC(=O)[C@H](CCC(=O)O)NC(=O)CNC(=O)[C@H](Cc1ccc(O)cc1)NC(=O)[C@H](CC(C)C)NC(=O)[C@H](C)NC(=O)[C@H](CO)NC(=O)[C@H](CO)NC(=O)[C@H](Cc1ccccc1)NC(=O)[C@H](C)NC(=O)[C@H](C)NC(=O)[C@H](Cc1ccc(O)cc1)NC(=O)[C@H](CC(=O)O)NC(=O)[C@H](CC(C)C)NC(=O)[C@H](C)NC(=O)CNC(=O)[C@@H]1CCCN1C(=O)[C@@H](NC(=O)CCCC[C@@H]1SC[C@@H]2NC(=O)N[C@@H]21)C(C)C)C(=O)O` [a-actinin 2] (Biotin-VPGALDYAAFSSALYGESDL-OH; C-terminus assumed), for which the figures for the Kd in assay [9] and in assay [10] were 1000 nM and 2000 nM, respectively.
On to `CSCC[C@H](NC(=O)[C@H](C)NC(=O)[C@H](CCCNC(=N)N)NC(=O)CNC(=O)[C@@H](NC(=O)[C@H](Cc1c[nH]c2ccccc12)NC(=O)[C@H](CCCNC(=N)N)NC(=O)CNC(=O)CCCC[C@@H]1SC[C@@H]2NC(=O)N[C@@H]21)[C@@H](C)O)C(=O)N[C@@H](CO)C(=O)N[C@@H](C)C(=O)N[C@@H](Cc1c[nH]c2ccccc12)C(=O)N[C@@H](CCCCN)C(=O)N1CCC[C@H]1C(=O)N[C@H](C(=O)N[C@@H](CCCNC(=N)N)C(=O)N[C@@H](CCCNC(=N)N)C(=O)N[C@@H](CCC(=O)O)C(=O)N[C@H](C(=O)N[C@@H](CCC(=O)O)C(=O)N[C@H](C(=O)O)C(C)C)[C@@H](C)O)[C@@H](C)O` [HPV E6 #35 (modified)] (Biotin-GRWTGRAMSAWKPTRRETEV-OH; C-terminus assumed), for which the results for the Kd in assay [11], in [12] and in [13] were 1000 nM, 350 nM and 400 nM, respectively.
Consider `CC[C@H](C)[C@H](NC(=O)CNC(=O)[C@H](CO)NC(=O)[C@H](Cc1ccccc1)NC(=O)[C@@H](NC(=O)[C@H](CS)NC(=O)CNC(=O)CNC(=O)[C@H](C)NC(=O)[C@@H]1CCCN1C(=O)[C@@H](NC(=O)[C@@H]1CCCN1C(=O)CCCC[C@@H]1SC[C@@H]2NC(=O)N[C@@H]21)[C@@H](C)CC)[C@@H](C)O)C(=O)N[C@@H](Cc1ccccc1)C(=O)N1CCC[C@H]1C(=O)N[C@H](C(=O)N[C@@H](CC(C)C)C(=O)N[C@H](C(=O)N[C@@H](CO)C(=O)N1CCC[C@H]1C(=O)N[C@@H](CC(C)C)C(=O)O)[C@@H](C)O)[C@@H](C)O` [KIA 1481] (Biotin-PIPAGGCTFSGIFPTLTSPL-OH; C-terminus assumed), for which, in [14], the Kd is 600 nM.
`CC[C@H](C)[C@H](NC(=O)[C@H](CC(=O)O)NC(=O)[C@H](CCC(=O)O)NC(=O)[C@H](CCCNC(=N)N)NC(=O)[C@@H](NC(=O)CCCC[C@@H]1SC[C@@H]2NC(=O)N[C@@H]21)[C@@H](C)O)C(=O)N[C@@H](Cc1ccc(O)cc1)C(=O)N[C@H](C(=O)N[C@@H](CC(N)=O)C(=O)N[C@@H](Cc1ccc(O)cc1)C(=O)N1CCC[C@H]1C(=O)N[C@H](C(=O)N[C@@H](Cc1ccccc1)C(=O)N[C@@H](CO)C(=O)N[C@@H](CCCNC(=N)N)C(=O)N[C@@H](CCCNC(=N)N)C(=O)N1CCC[C@H]1C(=O)N[C@@H](CCCCN)C(=O)N[C@H](C(=O)N[C@@H](CCCNC(=N)N)C(=O)N[C@H](C(=O)O)C(C)C)[C@@H](C)O)[C@@H](C)O)C(C)C` [DNAM-1] (Biotin-TREDIYVNYPTFSRRPKTRV-OH; C-terminus assumed): in [15], the Kd stood at 3000 nM.
